Test results published in article PMC4503980 (Scientific Reports, 2015).

Key:
Assay type in all cases: binding
PDZ1 of PSD-95 = molecular target: T1, PDZ1 of PSD-95 (Homo sapiens, UniProt P78352); assay: FP inhibition assay, Cy5-GluN2B probe / PDZ1; conditions: concentrations reaching 500–1800 μM; Cy5-GluN2B 50 nM; [PDZ1] = 10 μM (ZL006) or 18 μM (IC87201)
T1 construct: PDZ1 (61-151); made in house; host or cells: E. coli BL21-DE3 pLysS
Procedure: (§1) Fluorescent probes were made by attaching fluorophores (Cy5) to C-terminal 10- or 11-mer (C10 or C11) peptide ligands representing canonical and natural occurring protein partners (Supplementary Table S1). […] (Fig. 2).
(§2) (b) Cy5-GluN2B as probe (50 nM), [PDZ2] = 6 μM. (c) Cy5-CRIPT as probe (50 nM), [PDZ3] = 5 μM. […] Error bars indicate SEM based on three individual measurements. […]
(§3) Incubation time was 10–15 minutes (room temperature), and the assay was performed in a 1 × TBS buffer (150 mM NaCl, 10 mM Tris, pH 7.4) using black flat-bottom 384-well plates (Corning Life Sciences, NY) and a Safire2 plate-reader (Tecan, Männedorf, Switzerland). […] TAMRA- and Cy5-probes were measured at excitation/emission values of 530/585 nm (bandwidth = 20 nm) and 635/670 nm (bandwidth = 15 nm), respectively. […]
(§4) FP values were fitted to the general equation: Y = Bottom + (Top–Bottom)/[1 + (10^(X-logIC50)*HillSlope)], where X is the logarithmic value of peptide/compound concentration, and Y is the experimental FP values. Competitive inhibition constants, Ki values, were calculated from the IC50 values to quantify affinities between test substance and protein[42]. […]

PDZ2 of PSD-95 = molecular target: T2, PDZ2 of PSD-95 (Homo sapiens, UniProt P78352); assay: FP inhibition assay, Cy5-GluN2B probe / PDZ2; conditions: concentrations reaching 500–1800 μM; Cy5-GluN2B 50 nM; [PDZ2] = 6 μM
T2 construct: PDZ2 (155-249); made in house; host or cells: E. coli BL21-DE3 pLysS
Procedure: as §1, §2, §3, §4

PDZ3 of PSD-95 = molecular target: T3, PDZ3 of PSD-95 (Homo sapiens, UniProt P78352); assay: FP inhibition assay, Cy5-CRIPT probe / PDZ3; conditions: concentrations reaching 500–1800 μM; Cy5-CRIPT 50 nM; [PDZ3] = 5 μM
T3 construct: PDZ3 (309-401); made in house; host or cells: E. coli BL21-DE3 pLysS
Procedure: as §1, §2, §3, §4

[1] = molecular target: T4, nNOS-PDZ/PSD-95-PDZ2 interaction (Homo sapiens, UniProt P29475); assay: 'indirect' FP assay, Cnskr2 probe / PSD-95-PDZ2 / nNOS-PDZ; conditions: for activity in indirect FP assay (nNOS-PDZ/PSD-95-PDZ2): up to 500–600 μM, Cy5-Cnskr2 5 nM / PSD-95-PDZ2 3 μM / nNOS-PDZ 5 μM
T4 construct: nNOS-PDZ (12–130, human); PDZ2 (155-249); made in house; host or cells: E. coli
T4 sequence (P29475 12-130): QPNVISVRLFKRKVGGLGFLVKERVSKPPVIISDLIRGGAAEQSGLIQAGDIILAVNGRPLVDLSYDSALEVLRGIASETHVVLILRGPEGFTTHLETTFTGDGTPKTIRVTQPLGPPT
Source text: (§5) First we tested a series of 23 fluorescent-labelled C-terminal peptide ligands (Supplementary Table S1) derived from PDZ-interacting proteins in order to find a probe with good activity towards the PSD-95 PDZ domains and no or little activity against nNOS-PDZ (Supplementary Fig. S1). The Cnskr2 probe fulfilled these selectivity criteria and was used to generate saturation curves with PDZ2 and PDZ1-2 of PSD-95 (Fig. 4a). […] Next, fixed concentrations of TAMRA-Cnskr2, PSD-95-PDZ2/1-2, and nNOS-PDZ were applied, corresponding to the conditions at IC50 of the nNOS-PDZ inhibition curve (Fig. 4b) where sensitivity of the assay is greatest. […] Here, we used the Sapk3-peptide as it has the desired high affinity to α1-Syntrophin-PDZ and low affinity to nNOS-PDZ (Supplementary Fig. S1).
(§6) The minor increases in mP at high concentrations, 260-2900 μM, were due to fluorescence artefacts.
(§7) Similar, this assay was established with Syntrophin-PDZ and Sapk3 as probe (Fig. 4d).
(§8) In all cases, the DMSO effect on the assay was tested and found negligible.

[2] = molecular target: T5, nNOS-PDZ/PSD-95-PDZ1-2 interaction (Homo sapiens, UniProt P29475); assay: 'indirect' FP assay, Cnskr2 probe / PSD-95-PDZ1-2 / nNOS-PDZ
T5 construct: nNOS-PDZ (12–130, human); PDZ1-2 (61-249); made in house; host or cells: E. coli
T5 sequence (P29475 12-130): as above
Source text: as §5, §6, §7, §8

[3] = molecular target: T6, α1-Syntrophin-PDZ/nNOS-PDZ interaction (Homo sapiens, UniProt P29475); assay: 'indirect' FP assay, Cy5-Sapk3 / α-Syntrophin-PDZ / nNOS-PDZ; conditions: up to 500–600 μM; Cy5-Sapk3 5 nM / α-Syntrophin-PDZ 14 μM / nNOS-PDZ 10 μM
T6 construct: nNOS-PDZ (12–130, human); α-Syntrophin-PDZ (82–200, human); made in house; host or cells: E. coli
T6 sequence (P29475 12-130): as above
Source text: as §5, §6, §7, §8

| inhibition of probe-PDZ interaction (PDZ1) (PDZ1 of PSD-95) | inhibition of probe-PDZ interaction (PDZ2) (PDZ2 of PSD-95) | inhibition of probe-PDZ interaction (PDZ3) (PDZ3 of PSD-95) | activity in indirect FP assay (nNOS-PDZ/PSD-95-PDZ2) [1] | activity in indirect FP assay (nNOS-PDZ/PSD-95-PDZ1-2) ([2]; up to 500–600 μM, Cy5-Cnskr2 5 nM / PSD-95-PDZ1-2 1 μM / nNOS-PDZ 5 μM) | activity in indirect FP assay (α1-Syntrophin-PDZ/nNOS-PDZ) [3] | rise in FP signal (inhibition of nNOS-PDZ/PSD-95-PDZ2) ([1]; ZL006 0-2900 μM, TAMRA-Cnskr2 5 nM / PSD-95-PDZ2 […] / nNOS-PDZ 1 μM) | rise in FP signal (inhibition of nNOS-PDZ/PSD-95-PDZ1-2) ([2]; ZL006 0-2900 μM, TAMRA-Cnskr2 5 nM / PSD-95-PDZ1-2 1 μM / nNOS-PDZ 2.5 μM) | Compound |
| --- | --- | --- | --- | --- | --- | --- | --- | --- |
| did not inhibit | did not inhibit | did not inhibit | no activity | no activity | no activity | – | – | Oc1c(Cl)cc(Cl)cc1CNc1ccc2[nH]nnc2c1 [IC87201, 2-((1H-Benzo[d][1–3]triazol-5-ylamino)methyl)-4-6-dichlorophenol] |
| did not inhibit | did not inhibit | did not inhibit | no activity | – | no activity | no rise in FP signal | no rise in FP signal | O=C(O)c1ccc(NCc2cc(Cl)cc(Cl)c2O)cc1O [ZL006, 4-((3,5-Dichloro-2-hydroxybenzyl)amino)-2-hydroxybenzoic acid] |
